{
  "source": "paper PMC11901438",
  "about": "“Synthesis and Evaluation of Boron-Containing Heterocyclic Compounds with Antimicrobial and Anticancer Activities” (Molecules, 2025)",
  "origin": "cited, not measured here",
  "data": [
    {"test_system": "Mycobacterium tuberculosis", "design": "method as in PMID 33410233", "conditions": "earlier work of the same laboratory; cited from earlier work", "units": {"MIC90 (CIM90) anti-Mycobacterium tuberculosis": "µM"}, "values": [
      {"smiles": "O=C(Nc1ccc(N2CCSCC2)c(F)c1)c1ccc2no[n+]([O-])c2c1", "note": "[Compound 4]", "MIC90 (CIM90) anti-Mycobacterium tuberculosis": 0.70},
      {"smiles": "O=C(Nc1ccc(N2CCOCC2)c(F)c1)c1ccc2no[n+]([O-])c2c1", "note": "[Compound 5]", "MIC90 (CIM90) anti-Mycobacterium tuberculosis": 5.22},
      {"smiles": "O=C(Nc1ccc(N2CCCCCC2)c(F)c1)c1ccc2no[n+]([O-])c2c1", "note": "[Compound 6]", "MIC90 (CIM90) anti-Mycobacterium tuberculosis": 2.89},
      {"smiles": "O=C(Nc1ccc(N2CCN(c3ccc(F)cc3)CC2)c(F)c1)c1ccc2no[n+]([O-])c2c1", "note": "[Compound 3]", "MIC90 (CIM90) anti-Mycobacterium tuberculosis": 3.82},
      {"smiles": "O=C(Nc1ccc(N2CCN(c3ncccn3)CC2)c(F)c1)c1ccc2no[n+]([O-])c2c1", "note": "[Compound 2]", "MIC90 (CIM90) anti-Mycobacterium tuberculosis": 2.22},
      {"smiles": "O=C(Nc1ccc(N2CCN(c3ccccn3)CC2)c(F)c1)c1ccc2no[n+]([O-])c2c1", "note": "[Compound 1]", "MIC90 (CIM90) anti-Mycobacterium tuberculosis": 0.09}
    ]}
  ]
}
